Results reported in patent publication US11925656B2, “Biological total joint replacement” (priority 2014, dated 2024).

Tests used:
IGF-1 = IGF-1 in plasma, rabbit arthritis model; type: in vivo; conditions: control group 25 PG/ML
Description: (§1) The study was approved by the Institutional Animal Care and Use Committee (IACUC) of Thomas D. Morris, Inc. 28 New Zeeland White rabbits were selected for the study. Six such were randomly assigned to one of four groups; prophylactic cyanidin-3-glycoside (C3G)(referred to figures as Cl 1-42), prophylactic protocatechuic acid (PCA)(referred to in figures as PCA 1-42), therapeutic C3G (referred to in figures as Cl 42-70), and therapeutic PCA (referred to in figures as PCA 42-70). There were four controls, two each to the prophylactic and therapeutic groups.
(§2) The prophylactic groups were given PROC3G™ by Chromadex™ at a dose of 30 mg/kg of body weight of either C3G or PCA by mouth, 7 times per week for 42 days. The therapeutic groups' treatment was initiated on day 42 with a daily dose of PROC3G™ by Chromadex™ 7 times per week for 4 weeks. The dose of 30 mg of cyanidin-3-glucoside per kg of body weight calculates to be 0.177 millimoles per kg body weight. The dose of PCA was the same in terms of millimoles per kg body weight.
(§3) The experimental rabbits underwent surgery with an intent to create a severe degenerative arthritis by cutting the medial collateral ligament, the anterior cruciate ligament and removing the medial meniscus. A partial thickness laceration was made longitudinally on the lateral femoral condyle for future assessment of potential for repair. The surgery was performed by two licensed veterinarians. One surgeon was very experienced. The other surgeon was a recent graduate.
Blood testing was performed prior to necropsy on C3G, PCA, glucose, MMP-3 and IGF-1 to assess any systemic effects.

TNF-alpha = TNF-alpha in synovial fluid by ELISA, rabbit arthritis model; type: in vivo; conditions: therapeutic groups, oral 4 weeks, vs control; not statistically significant
Description: as §1, §2
(§4) The experimental rabbits underwent surgery with an intent to create a severe degenerative arthritis by cutting the medial collateral ligament, the anterior cruciate ligament and removing the medial meniscus. […]
(§5) Synovial Fluid—Detected by ELISA

ADAMTS-5 = ADAMTS-5 in synovial fluid by ELISA, rabbit arthritis model; type: in vivo
Description: as §1, §2, §3
(§6) At necropsy, the synovial fluid was harvested percutaneously and upon arthrotomy. The synovium was harvested from posterior compartment. The patella and adjacent synovium was procured as a separate specimen as was the medial and lateral condyle.
(§7) The synovial fluid and half of the synovium was frozen and sent to BioBoston Laboratory for chemical analysis. The other half of the synovium and bone was sent to McClinchery Histology in Stockbridge, Mich. for histological preparation and staining. […]
as §5

TGF-beta = TGF-beta in synovium by ELISA, rabbit arthritis model; type: in vivo; conditions: therapeutic group, oral days 42-70, vs control
Description: as §1
The prophylactic groups were given PROC3G™ by Chromadex™ at a dose of 30 mg/kg of body weight of either C3G or PCA by mouth, 7 times per week for 42 days. The therapeutic groups' treatment was initiated on day 42 with a daily dose of PROC3G™ by Chromadex™ 7 times per week for 4 weeks. […]
TGF-β induces apoptosis in numerous cell types. […] It is a type of cytokine which plays a role in immunity, cancer, bronchial asthma, heart disease, diabetes, hereditary hemorrhagic telangiectasia, Marfan syndrome, vascular Ehlers-Danlos syndrome Loeys-Dietz syndrome, Parkinson's disease, and AIDS. • Synovial Fluid—Detected by ELISA • TGF-beta was decreased in all groups. See FIG. 2B. • Synovial Tissue (Synovium)—Detected by ELISA • TGF-beta was increased in the C3G therapeutic group.

MMP-13 = MMP-13 in synovium by ELISA, rabbit surgically induced knee arthritis; type: in vivo; conditions: vs untreated control, not statistically significant
Description: as §1, §2, §3, §6
(§8) The synovial fluid and half of the synovium was frozen and sent to BioBoston Laboratory for chemical analysis. The other half of the synovium and bone was sent to McClinchery Histology in Stockbridge, Mich. for histological preparation and staining. Patellar slides were sent to BioBoston Contract Laboratories for histochemical staining and ICRS grading. Sample slides were examined for Lubricin at Myron Spector laboratory.
(§9) Synovial Tissue (Synovium)—Detected by ELISA

TIMP-1 = TIMP-1 in synovial fluid by ELISA, rabbit arthritis model; type: in vivo; conditions: statistical significance not evident
Description: as §1, §2, §4, §5

IL-1 beta = IL-1 beta in synovium by ELISA, rabbit arthritis model; type: in vivo; conditions: therapeutic groups, oral days 42-70, vs control
Description: as §1
(§10) The prophylactic groups were given PROC3G™ by Chromadex™ at a dose of 30 mg/kg of body weight of either C3G or PCA by mouth, 7 times per week for 42 days. The therapeutic groups' treatment was initiated on day 42 with a daily dose of PROC3G™ by Chromadex™ 7 times per week for 4 weeks. The dose of 30 mg of cyanidin-3-glucoside per kg of body weight calculates to be 0.177 millimoles per kg body weight. The dose of PCA was the same in terms of millimoles per kg body weight. […]
Interleukin-1 beta (IL-1p) also known as catabolic, is a cytokine protein. […] Increased production of IL-1B causes a number of different auto-inflammatory syndromes. • Synovial Fluid—Detected by ELISA • Levels of IL-1 beta were decreased in all groups. See FIG. 2A. • Synovial Tissue (Synovium)—Detected by ELISA

MMP-1 = MMP-1 in synovium by ELISA, rabbit arthritis model; type: in vivo; conditions: therapeutic group, oral days 42-70, vs control
Description: as §1, §2
as §3, with “The surgery was performed by two licensed veterinarians. One surgeon was very experienced. The other surgeon was a recent graduate.” left out

ADAMTS-5 gene expression = ADAMTS-5 gene expression in synovium by real-time PCR, rabbit arthritis model; type: in vivo; conditions: therapeutic groups, oral days 42-70, vs control
Description: as §1, §2, §4
Synovial Tissue (Synovium)—Gene Expression Level Detected by Real-Time PCR

C-reactive protein (CRP) = C-reactive protein (CRP) in plasma after knee surgery; type: in vivo, rabbit
Procedure: C-reactive protein (CRP) is a protein found in the blood plasma, the levels of which rise in response to inflammation (i.e., C-reactive protein is an acute-phase protein). Its physiological role is to bind to phosphocholine expressed on the surface of dead or dying cells (and some types of bacteria) in order to activate the complement system via the C1Q complex. CRP rises within two hours of the onset of inflammation, up to a 50,000-fold, and peaks at 48 hours. […] CRP is thus a screen for inflammation.
Knee surgery was performed to create a severe irreparable degenerative knee joint, which in turn elevated the CRP in the plasma to average of […]. A historical normal amount of CRP is 3.15 micrograms/mL. See Sun H, et al., Am J Pathol. October 2005; 167(4): 1139-1148. Rabbit CRP levels are close to the mean values of healthy middle-aged humans (2.82 mg/L) reported in the literature. See Ockene I S, et al., Clin Chem. 2001; 47:444-450.
The controls in the study were animals that had surgery and received no treatment. The prophylaxis test groups had the surgery and received 6 weeks of oral C-3-G or PCA 7 times per week as described in example 1. The therapeutic treatment group had surgery, received no treatment for 41 days and then at day 42 received oral C-3-G or PCA 7 times per week as described in example 1.

lymphocytes = assay: Number of lymphocytes in synovial fluid, rabbit arthritis model; type: in vivo; conditions: therapeutic groups, oral days 42-70, vs control
Description: as §1, §2, §3, §6
In addition to testing for the increase or decrease of various factors and cytokines, tests were run to count the number of white blood cells, including polymorphonuclear leukocytes (PMN), macrophages (Mac) and lymphocytes (Lym). […]

MMP3 = MMP3 in synovial fluid by ELISA, rabbit arthritis model; type: in vivo; conditions: therapeutic groups, oral days 42-70, vs control
Description: as §1, §10
MMP3 is known as matrix metallopeptidase 3, or stromelysin 1 or progelatinase. […] See FIG. 2C. • Synovial Tissue (Synovium)—Detected by ELISA • MMP-3 levels were reduced in all four groups. See FIG. 9B. • Synovial Tissue (Synovium)—Gene Expression Level Detected by Real-Time PCR • MMP-3 gene expression was decreased in all groups. […]

MMP-3 = MMP-3 expression in cartilage, histochemical staining and scoring, rabbit arthritis model; type: in vivo
Description: as §1, §2, §3, §6, §8
MMP3 is known as matrix metallopeptidase 3, or stromelysin 1 or progelatinase. Proteins of the matrix metalloproteinase (MMP) family are involved in the breakdown of 20 extracellular matrix in normal physiological processes, such as embryonic development, reproduction, and tissue remodeling, as well as in disease processes, such as arthritis and metastasis. […] See FIG. 2C. • Synovial Tissue (Synovium)—Detected by ELISA • MMP-3 levels were reduced in all four groups. See FIG. 9B. • Synovial Tissue (Synovium)—Gene Expression Level Detected by Real-Time PCR • MMP-3 gene expression was decreased in all groups. See FIG. 13A. • Histochemical Scoring Analysis

lubricin = assay: Lubricin in synovium by ELISA, rabbit arthritis model; type: in vivo
Description: as §1, §2, §3, §6, §7, §9

[1] = prophylactic groups, oral days 1-42
[2] = therapeutic groups, oral days 42-70
[3] = prophylactic groups, oral days 1-42, vs control
[4] = therapeutic groups, oral days 42-70, vs control

SMILES: OC[C@H]1O[C@@H](Oc2cc3c(O)cc(O)cc3[o+]c2-c2ccc(O)c(O)c2)[C@H](O)[C@@H](O)[C@@H]1O [C3G, cyanidin-3-glucoside, reference compound]
- IGF-1 in the plasma (IGF-1; [1]): 15.8 pg/mL
- IGF-1 in the plasma (IGF-1; [2]): 28.5 pg/mL
- TNF-alpha levels in synovial fluid (TNF-alpha): slight increase
- ADAMTS-5 in synovial fluid (ADAMTS-5; [3]): decreased
- ADAMTS-5 in synovial fluid (ADAMTS-5; [4]): decreased
- TGF-beta in synovium (TGF-beta): increased
- MMP-13 levels in synovium (MMP-13; prophylactic groups, oral 7 times per week days 1-42 (C3G 30 mg/kg, PCA 26.4 mg/kg)): increased slightly
- MMP-13 levels in synovium (MMP-13; therapeutic groups, oral 7 times per week days 42-70 (C3G 30 mg/kg, PCA 26.4 mg/kg)): slightly decreased
- TIMP-1 levels in synovial fluid (TIMP-1; [3]): elevated
- TIMP-1 levels in synovial fluid (TIMP-1; [4]): elevated
- levels of IL-1 beta in synovium (IL-1 beta): decreased
- MMP-1 in synovium (MMP-1): decrease
- ADAMTS-5 gene expression in synovium (ADAMTS-5 gene expression): decreased
- CRP, an indicator of inflammation (C-reactive protein (CRP); given by oral route immediately after injury): kept to normal levels
- plasma CRP level (C-reactive protein (CRP); prophylaxis test group, 6 weeks oral treatment from surgery, untreated control at 42 days 8.8 mg/mL): 3.1 micrograms/mL
- plasma CRP level (C-reactive protein (CRP); therapeutic group, no treatment for 6 weeks after surgery, then 4 weeks oral treatment): 28.3 mg/mL
- number of lymphocytes in synovial fluid (lymphocytes): decreased
- MMP3 in synovial fluid (MMP3): decreased
- histochemical staining for the presence of MMP-3 in cartilage (MMP-3; [1]): very minimal positive stain
- MMP-3 expression in cartilage (MMP-3; [3]): reduced
- histochemical staining for the presence of MMP-3 in cartilage (MMP-3; [2]): no staining
- MMP-3 expression in cartilage (MMP-3; [4]): reduced
- lubricin in synovium (lubricin; [3]): increased
- lubricin in synovium (lubricin; [4]): increased
